Laboratory results as given in patent US7094801B2, “Chalcone derivatives and their use to treat diseases” (Atherogenics, Inc., priority 2001, dated 2006).

Columns and labels:
IL-13 mRNA = IL-13 mRNA in mouse lungs, ovalbumin sensitization and challenge (real-time PCR); assay type: in vivo; conditions: 100 mg/kg/d, compared with vehicle treated mice
Experimental: (§1) Lung tissues were collected from ovalbumin (Calbiochem) or vehicle (2% Cremophor/Bicarbonate) sensitized Balb/c mice (Charles River) with or without treatment of test compound (100 mg/kg/d, from day 0 to day 14). Total RNA samples were isolated by the Trizol method (Life Technologies, Grand Island, N.Y.) and quantitatively measured by UV spectrophotometer, as well as qualitatively examined by ethidum bromide stained gel electrophoresis. First strand cDNA templates were generated with oligo (dT) by Reverse Transcription Kit (Invitrogen, Carlsbad, Calif.). The initial amounts of mRNA of each samples were quantitatively determined by running a SYBR Green (Qiagen, Valencia, Calif.) based real-time PCR (programmed as: initial denaturation at 95° C. for 15 minutes, denaturation at 95° C. for 15 seconds, annealing and elongation at 51±1° C. for 1 minute for total 40 cycles) with a specific pair of primers (IDT Corporation, Coralville, Iowa) and control primers for GAPDH in iCycler IQ Optical System (Hercules, Calif.). The data were statistically analyzed by ANOVA and t-tests with multiple comparisons of means (n=5 and P<0.05 were considered significant).

IFN-gamma mRNA = IFN-gamma mRNA in mouse lungs, ovalbumin sensitization and challenge (real-time PCR); assay type: in vivo; conditions: 100 mg/kg/d, compared with vehicle treated mice
Experimental: as §1

MCP-1 = assay: In Vitro MCP-1 Activity Assay; assay type: cell-based; conditions: Endothelial cell; human endothelial cells, TNF-α (1 ng/ml), approximately 16 hours; read-out: IC50 (amount of compound required to achieve a 50% reduction compared to control), MCP-1
Experimental: Cultured human endothelial cells were seeded in 96-well plates. On the following day cells were stimulated with TNF-α (1 ng/ml) in the presence or absence of compounds dissolved in DMSO. To establish a dose curve and an IC50, multiple concentrations in 2- to 5-fold increments were used. Cells were exposed to TNF-α and compounds for approximately 16 hours. The next day the cells were visually examined via light microscopy to score for visual signs of toxicity. Cell culture media, diluted 1:10, was analyzed by an MCP-1 immunoassay kit (R & D Systems). This assay is a sandwich immunoassay using immobilized anti-MCP-1 antibody in 96-well plate to capture secreted MCP-1 in cell culture media. Captured MCP-1 was subsequently detected with a horse radish peroxidase-conjugated anti-MCP-1 antibody for color development. Compound 3 expressed an IC50 values of >10(the amount of compound (μM) required to achieve a 50% reduction compared to control (cells stimulated with TNF-α only)).

IgE = assay: Serum IgE levels in ovalbumin sensitized Balb/c mice; assay type: in vivo, mouse; conditions: 100 mg/kg/d from day 0 to day 14, compared with vehicle treated mice
Experimental: Peripheral blood samples were collected from ovalbumin (Calbiochem) or vehicle (2% Cremophor/Bicarbonate) treated Balb/c mice (Charles River) with or without administration of test compound (100 mg/kg/d, from day 0 to day 14). Serum was obtained by centrifugation and transferred into Microtainer serum tubes and frozen at −80° C. Mouse IgE ELISA Quantitation Kit (Bethyl Laboratories, Inc. Montgomery, Tex. or PharMingen, San Diego, Calif.) was applied to measure the IgE levels of serum samples. Immuno-reactions were performed as Kit protocol with IgE standard and serum samples in duplicates. The results were read in a microplate reader (Bio-Rad Model 550) at 450 nm and the amounts of IgE were calculated according to the standard curve. The limit of detection in our experiments was 7 ng/ml. Compound 3 administrated at 100 mg/kg/d from day 0 to day 14, reduced serum IgE levels by 38% in ovalbumin sensitized Balb/c mice compared with vehicle treated mice.

IL-5 mRNA = IL-5 mRNA in mouse lungs, ovalbumin sensitization and challenge (real-time PCR); assay type: in vivo; conditions: 100 mg/kg/d, compared with vehicle treated mice
Experimental: as §1

IL-4 mRNA = IL-4 mRNA in mouse lungs, ovalbumin sensitization and challenge (real-time PCR); assay type: in vivo; conditions: 100 mg/kg/d, compared with vehicle treated mice
Experimental: as §1

IL-1β = assay: LPS-stimulated IL-1β secretion in human peripheral blood mononuclear cells; assay type: cell-based; conditions: PBMC; for Percent IL-1β Secreted: LPS (1–2 μg/ml) 3 hours
Experimental: Human peripheral blood mononuclear cells were treated with or without Compound 3 for 1 hour, then stimulated with LPS (1–2 μg/ml) for 3 hours. Condition media was collected and IL-1β measured using an ELISA kit. […] See Biological Table 4

[1] = system: Human Aortic Smooth Mucle Cells (HAoSMC); assay: Smooth Muscle Cell Proliferation Protocol (3H-thymidine incorporation); assay type: cell-based; conditions: HAoSMC stimulated by 5% serum
Experimental: Human Aortic Smooth Mucle Cells (HAoSMC) were obtained from Clonetics, Inc. and were used below passage 10. Cells were seeded in 24-well plates. When cells were 80% confluent, they were made quiescent by adding media containing 0.2% serum (as compared to 5% serum in normal culture media) for 48 hours. The cells were, then, stimulated by 5% serum in the presence or absence of compounds dissolved in DMSO. […] Rapamycin (at 1 and 0.1 μM) was used as a positive control for the assay. After a 20 hour incubation with or without test compounds, 3H-thymidine (0.5 μCi/well) was added to the cells for 4 hours of labeling. Washed cells were then lysed in NaOH and the amount of 3H-thymidine incorporation was determined. Cytotoxicity of the drug was measured by use of the CytolTox 96 assay kit (Promega, Madison, Wis.).

VCAM-1 mRNA = assay: Lung VCAM-1 mRNA levels in LPS-challenged mice (quantitative RT-PCR); assay type: in vivo, mouse; conditions: subcutaneously 100 mg/kg/d, 2 hr prior to LPS injection (1 mg/kg), compared with vehicle controls
Experimental: (§2) Balb/C mice (6–8 weeks) were injected with LPS (1 mg/kg; 5 mls/kg) and sacrificed 2 hr later. Blood was collected for plasma TNF-α levels and lungs for measurement of VCAM-1 mRNA levels by quantitative RT-PCR. Compound 3 administered subcutaneously at a dose of 100 mg/kg/d, 2 hr prior to LPS injection, inhibited TNF-α production by 80% and VCAM-1 expression by 60% compared with vehicle controls.

IL-2 mRNA = IL-2 mRNA in mouse lungs, ovalbumin sensitization and challenge (real-time PCR); assay type: in vivo; conditions: 100 mg/kg/d, compared with vehicle treated mice
Experimental: as §1

[2] = system: rat adjuvant arthritis model; assay: DMARD activity in rat adjuvant arthritis (bone erosion, splenomegaly); assay type: in vivo
Experimental: Male Lewis rats (150–175 g) from Charles River Laboratories were anesthetized on day 0 with 3–5% isoflurane anesthesia while the tail base was shaved and adjuvant mixture was injected. Fifty μL of adjuvant (10 mg/ml M. butyricum in mineral oil) was injected subcutaneously into two sites at the tail base. Paw swelling was monitored using a plethysmometer (UGO Basile), after shaving each leg to the level of the Achilles tendon to mark the level of immersion. A baseline paw measurement for both hindpaws was taken between d2-d5 and a second measurement was taken on day 7–8. Onset of paw swelling occurred rapidly between d9–11 and daily measurements were performed every weekday between d9 and day 15. Compounds of the invention and vehicles were dosed either prophylactically (d1–14), or therapeutically (d9–14) after swelling was confirmed. Solutions were injected subcutaneously or given orally by gavage 1–2 times per day. From day 0, rats were weighed every 2–3 days and overall health was monitored. Plasma drug levels, if desired, were measured in tail-vein derived blood samples taken on day 14. On day 15, blood samples were obtained by cardiac puncture, rats were euthanized with CO2, selected organs removed and both hindpaws were amputated and placed in 10% buffered formalin for histopathological analysis. See Biological Table 2. […]

TNF-α = assay: Plasma TNF-α levels in LPS-challenged mice; assay type: in vivo, mouse; conditions: subcutaneously 100 mg/kg/d, 2 hr prior to LPS injection (1 mg/kg), compared with vehicle controls
Experimental: as §2

Structure (SMILES): COc1cc(OC)c(-c2cc3ccccc3s2)cc1/C=C/C(=O)c1ccc(C(=O)O)cc1 [Compound 3]
- inhibition of ovalbumin induced IL-13 mRNA in the lung (IL-13 mRNA): 82%
- effect on IFN-gamma mRNA in the lung (IFN-gamma mRNA): without significantly affecting
- IC50 (MCP-1): > 10 µM
- reduction of serum IgE levels (IgE): 38%
- inhibition of ovalbumin induced IL-5 mRNA in the lung (IL-5 mRNA): 98%
- inhibition of ovalbumin induced IL-4 mRNA in the lung (IL-4 mRNA): 68%
- Percent IL-1β Secreted (IL-1β; 1.25 μM): >40%
- Percent IL-1β Secreted (IL-1β; 2.5 μM): >10%
- Percent IL-1β Secreted (IL-1β; 5 μM): >5%
- Percent IL-1β Secreted (IL-1β; 10 μM): >1%
- inhibition of LPS-stimulated IL-1β secretion (IL-1β; 1 hour pretreatment, LPS 3 hours): dose dependent inhibition
- IC50 [1]: 0.5 µM
- inhibition of VCAM-1 expression (lung mRNA) (VCAM-1 mRNA): 60%
- effect on IL-2 mRNA in the lung (IL-2 mRNA): without significantly affecting
- splenomegaly ([2]; prophylactically, 100, 50 and 25 mg/kg/d, b.i.d., s.c.): inhibit splenomegaly
- bone erosion in the ankle joint by histopathological analysis ([2]; twice daily subcutaneous doses of 60, 40 and 20 mg/kg/d, prophylactically): inhibit bone erosion
- inhibition of TNF-α production (plasma) (TNF-α): 80%
